# Experiments:
# Tetrahymena cells [1] = experiment: Growth, morphology and senescence of Tetrahymena mass-transfer cultures with nucleoside analogs; format: cell-based, Tetrahymena thermophila
# Experimental: For analysis of macronuclear DNA from cultures containing the nucleoside analog AZT (Sigma), or controls lacking analog, at various timepoints during vegetative divisions, cells from stationary stock cultures were inoculated into 25 ml thymine-deficient Iso-sensitest broth (‘Isobroth’, Oxoid USA) in 250 ml flasks. Cultures were incubated at 30° C. with shaking (100 rpm) for 48 hours. Cells were counted and plated at 1000 cells/1.5 ml in 24-well plates (Falcon) and grown at 30° C., without shaking, for 48 hours. 5 μl of these log phase cells were used to inoculate 1 ml cultures (Isobroth) containing varied concentrations of nucleoside analog. Thereafter, every 2-4 days cells were transferred, either 5 μl per well, or 1-3 μl using a multi-pronged replicator into fresh 1 ml broth containing AZT. Remaining cells were pelleted and stored at −80° C. until processed for DNA analysis.
# For analysis of macronuclear DNA from vegetative cultures containing the nucleoside analogs Ara-G (Calbiochem), ddG (Calbiochem), or ddI (Calbiochem), or controls lacking analog, stock cultures were grown overnight in 2% PPYS as described. Cells were counted and plated at 100 cells/2 ml in 2% PPYS containing varied amounts of analog, 1% DMSO (Fisher) (as a control for ddG and Ara-G), or 2% PPYS alone. Cells were replica plated into fresh medium every 2-6 days, and remaining cells were pelleted and stored at −80° C. until processed for DNA analysis.
# To test whether such a phenotype could be produced by inhibitors of telomerase in Tetrahymena, duplicate log-phase cultures were grown for prolonged periods in the presence of varying concentrations of analogs. The growth and cell morphology of these cultures were monitored, and DNA was isolated at different times for telomere length analysis. […] From growth rate measurements it was calculated that the cells went through 150 to 250 cell generations in the course of this 50 day period.
# [2] = test system: lymphoma cell line JY 616; experiment: Telomere length of JY lymphoma cells by Southern blot; format: cell-based, human; settings: AZT treated cells, week 3
# Experimental: The first lane is DNA from the cells at the start of the experiment, the second is the RPMI control, and the third is cells treated with AZT for the times indicated.
# Cells were treated over a 10 week period with either 10 μM ddG in 0.01% DMSO or medium with 0.01% DMSO only.
# The effect of the agents on telomerase activity in intact cells was then studied utilizing the lymphoma cell line JY 616 which were maintained in RPMI 1640 with […] Hepes, 10% FCS, and penicillin/streptomycin (Gibco). The cells were cultured in 6-well plates (Falcon) with 5.0 ML of medium per well in duplicate. Cells were passaged every 7-10 days which corresponded to 5-7 mean population doublings (MPD), and seeded at 3×10^4 cells per well into fresh medium containing analog or control. Cell viability was monitored prior to harvest utilizing trypan blue stain (Gibco) during counting with a hemocytometer. The average ratio of stained: unstained cells (dead:alive) was […]. The intactness of the DNA was measured on a parallel gel by observing its mobility in a gel prior to digestion by a restriction enzyme.
# Tetrahymena cells [3] = experiment: Progeny formation (cycloheximide resistance) of Tetrahymena conjugated in the presence of analog; format: cell-based, Tetrahymena thermophila; settings: for # CHX-R: number of cycloheximide-resistant wells
# Experimental: For analysis of cycloheximide (CHX) sensitivity of cells conjugated in the presence of analog, 50 ml cultures of each cell type were grown overnight in 2% PPYS, starved in Dryl's for 18 hours, mated (5×10^5 cells/ml) for 6 hours, then analog was added. Cells were allowed to complete mating in the presence of the analog. Twenty-four hours after mixing, cells were diluted in Dryl's solution, counted and plated at 1 cell per well of 96-well plates in 1% PPYS without analog. Cells were grown for 4 days in a humid chamber at 30° C., without shaking. Cells were then replica plated into 1% PPYS plus 15 μg/ml cycloheximide, allowed to grow for four days before scoring, and percent of CHX-resistant wells was calculated. Because generation of progeny expressing the cycloheximide marker requires successful production of a new macronucleus, cells whose macronuclear development was disrupted by the analog are killed in CHX.
# This process involves de novo formation of new macronuclear telomeres in the progeny cells. Macronuclear development in ciliated protozoans such as Tetrahymena involves developmentally programmed, site-specific fragmentation of germline chromosomes into linear subchromosomes, whose ends are healed by de novo addition of telomeres. […] Because of the immediate requirement for telomere addition to fragmented DNA, it is possible that the latter process might be more sensitive to telomerase inhibition than telomere maintenance during vegetative growth. To test whether nucleoside analogs cause inhibition of macronuclear development due to a disruption of telomere formation, we mated two strains of Tetrahymena which are sensitive to cycloheximide, but whose progeny after mating are resistant to cycloheximide. Synchronized mated cells were treated with AZT at concentrations ranging from 10 μM to 5 mM for a period beginning just prior to when macronuclear development begins and continuing during macronuclear development (the period 6-24 hours after mating was initiated). […] In attempts to maximize the effect of AZT, cells were either refed at 6 hrs with 2% PPYS or Isobroth, or starved until 24 hrs (the duration of the AZT treatment). Such starvation arrests macronuclear development at an intermediate stage. When refed, macronuclear development would then be forced to proceed in the presence of the AZT. Control, unmated parental cells were also plated and exposed to drug.
compound,measurement,setting,value
Cc1cn([C@H]2C[C@H](N=[N+]=[N-])[C@@H](CO)O2)c(=O)[nH]c1=O [AZT],effect on cell growth and survival,Tetrahymena cells [1]; 5 or 10 mM in Isobroth medium,strongly inhibited cell growth and killed cells within a day
same,senescence of cultures,"Tetrahymena cells [1]; up to 1 mM in Isobroth, 50-day continuous growth, ˜10^3 cells per transfer",did not result in senescence
same,mean telomere length compared to the control medium,[2],marked decrease in mean telomere length
same,% CHX-R,"Tetrahymena cells [3]; 0.01 mM analog (head prints MM), first block for the analog",72%
same,% CHX-R,"Tetrahymena cells [3]; 0.01 mM analog (head prints MM), second block for the analog",73%
same,# CHX-R,"Tetrahymena cells [3]; 0.01 mM analog, first block for the analog",121
same,# CHX-R,"Tetrahymena cells [3]; 0.01 mM analog, second block for the analog",67
same,% CHX-R,"Tetrahymena cells [3]; 0.1 mM analog (head prints MM), first block for the analog",68%
same,% CHX-R,"Tetrahymena cells [3]; 0.1 mM analog (head prints MM), second block for the analog",67%
same,# CHX-R,"Tetrahymena cells [3]; 0.1 mM analog, first block for the analog",100
same,# CHX-R,"Tetrahymena cells [3]; 0.1 mM analog, second block for the analog",128
same,% CHX-R,"Tetrahymena cells [3]; 1.0 mM analog (head prints MM), first block for the analog",55%
same,% CHX-R,"Tetrahymena cells [3]; 1.0 mM analog (head prints MM), second block for the analog",48%
same,# CHX-R,"Tetrahymena cells [3]; 1.0 mM analog, first block for the analog",91
same,# CHX-R,"Tetrahymena cells [3]; 1.0 mM analog, second block for the analog",60
same,% CHX-R,"Tetrahymena cells [3]; 5.0 mM analog (head prints MM), first block for the analog",63%
same,% CHX-R,"Tetrahymena cells [3]; 5.0 mM analog (head prints MM), second block for the analog",53%
same,# CHX-R,"Tetrahymena cells [3]; 5.0 mM analog, first block for the analog",75
same,# CHX-R,"Tetrahymena cells [3]; 5.0 mM analog, second block for the analog",89
same,irreversible disruption of macronuclear development,Tetrahymena cells [3]; analog present during conjugation,little or no irreversible disruption

# From US6551774B1, “Diagnostic methods for conditions associated with elevated cellular levels of telomerase activity” (Board of Regents, The University of Texas System, priority 1992, dated 2003)
